The values below come from US8765723B2, “Analogues of cilostazol” (CoNCERT Pharmaceuticals Inc., priority 2007, dated 2014).

Read-outs that look alike come from different tables or passages of the source.

A short description of this data set: Determination of metabolic stability in human liver microsomes. It is filed as in vitro ADME. The following applies: for half-life at 1 μM: pH 7.4, read-out: In vitro half-life t1/2 in human liver microsomes; for half-life at 1 μM / In vitro half-life t1/2 in human liver microsomes: 0.5 mg/mL human liver microsomes, 1 μM test compound, 2 mM NADPH, 37° C., 0-30 minutes; for stabilization in comparison to undeuterated counterpart (in words): repeated experiment, Table 4, vs cilostazol (106, 100) or dehydrocilostazol (110). On the procedure:
Human liver microsomes (20 mg/mL) were obtained from Xenotech, LLC (Lenexa, Kans.). β-nicotinamide adenine dinucleotide phosphate, reduced form (NADPH), magnesium chloride (MgCl2), and dimethyl sulfoxide (DMSO) were purchased from Sigma-Aldrich.
7.5 mM stock solutions of test compounds, as well as cilostazol and 7-ethoxycoumarin (as a positive control) were prepared in DMSO. The 7.5 mM stock solutions were diluted to 50 μM in acetonitrile (ACN). The 20 mg/mL human liver microsomes were diluted to 0.625 mg/mL in 0.1 M potassium phosphate buffer, pH 7.4, containing 3 mM MgCl2. The diluted microsomes were added to wells of a 96-well deep-well polypropylene plate in triplicate. Ten μL of the 50 μM test compound was added to the microsomes and the mixture was pre-warmed for 10 minutes. Reactions were initiated by addition of pre-warmed NADPH solution. The final reaction volume was 0.5 mL and contained 0.5 mg/mL human liver microsomes, 1 μM test compound, and 2 mM NADPH in 0.1 M potassium phosphate buffer, pH 7.4, and 3 mM MgCl2. The reaction mixtures were incubated at 37° C., and 50 μL aliquots were removed at 0, 5, 10, 20, and 30 minutes and added to shallow-well 96-well plates which contained 50 μL of ice-cold ACN with internal standard to stop the reactions. The plates were stored at 4° C. for 20 minutes after which 100 μL of water was added to the wells of the plate before centrifugation to pellet precipitated proteins. Supernatants were transferred to another 96-well plate and analyzed for amounts of parent remaining by LC-MS/MS using an Applied Bio-systems API 4000 mass spectrometer.
The in vitro t1/2s for test compounds were calculated from the slopes of the linear regression of % parent remaining (ln) vs incubation time relationship: in vitro t1/2=0.693/k, where k=−[slope of linear regression of % parent remaining(ln) vs incubation time]. Data analysis was performed using Microsoft Excel Software.
A general note: Liver microsomes are vesicles of endoplasmic reticulum, rich in cytochrome P450 enzymes.

Take `O=C1CCc2cc(OCCCCc3nnnn3C3CCCCC3)ccc2N1` [Cilostazol, 6-[4-(1-Cyclohexyl-1H-tetrazol-5-yl)butoxy]-3,4-dihydro-2(1H)-quinolinone]: for the setting “first experiment (Table 3)”, the half-life at 1 μM turned out to be 0.78 h. The “In vitro half-life t1/2 in human liver microsomes” value (repeated experiment (Table 4)) was 1.03 h.
Regarding `[2H]C1([2H])C(=O)Nc2ccc(OCCCCc3nnnn3C3([2H])C([2H])([2H])C([2H])([2H])C([2H])([2H])C([2H])([2H])C3([2H])[2H])cc2C1([2H])[2H]` [Compound 100, 6-(4-(1-(Cyclohexyl-d11)-1H-tetrazol-5-yl)butoxy)-3,3,4,4-d4-dihydroquinolin-2(1H)-one], the “stabilization in comparison to undeuterated counterpart (in words)” value (“stabilization in comparison” below) is reported as “stabilized”. Moreover, the “In vitro half-life t1/2 in human liver microsomes” value (first experiment (Table 3)) amounted to 0.695 h. Also, the “stabilization in human liver microsomes (in words)” value (previous (first) experiment, Table 3) is reported as “no stabilization”. Moreover, the “In vitro half-life t1/2 in human liver microsomes” value (repeated experiment (Table 4)) came out at 1.64 h.
Turning to `[2H]C1([2H])CCC(n2nnnc2CCCCOc2ccc3c(c2)C([2H])([2H])C([2H])([2H])C(=O)N3)CC1` [Compound 101, 6-(4-(1-(4,4-d2-Cyclohexyl)-1H-tetrazol-5-yl)butoxy)-3,3,4,4-d4-dihydroquinolin-2(1H)-one], under “first experiment (Table 3)”, the half-life at 1 μM is 0.753 h.
Consider `[2H]C1([2H])C([2H])([2H])C([2H])([2H])C([2H])(n2nnnc2CCCCOc2ccc3c(c2)CCC(=O)N3)C([2H])([2H])C1([2H])[2H]` [Compound 106, 6-(4-(1-(Cyclohexyl-d11)-1H-tetrazol-5-yl)butoxy)-3,4-dihydroquinolin-2(1H)-one], for which the “stabilization in comparison” value is “stabilized”. Moreover, the half-life at 1 μM (first experiment (Table 3)) was 1.32 h. In addition, under “repeated experiment (Table 4)”, the “In vitro half-life t1/2 in human liver microsomes” value amounted to 1.45 h.
Regarding `[2H]C1([2H])CCC(n2nnnc2CCCCOc2ccc3c(c2)CCC(=O)N3)CC1` [Compound 107, 6-(4-(1-(4,4-d2-Cyclohexyl)-1H-tetrazol-5-yl)butoxy)-3,4-dihydroquinolin-2(1H)-one], the half-life at 1 μM (first experiment (Table 3)) was determined as 0.595 h.
In the case of `[2H]C1([2H])C([2H])([2H])C([2H])([2H])C([2H])(n2nnnc2CCCCOc2ccc3[nH]c(=O)ccc3c2)C([2H])([2H])C1([2H])[2H]` [Compound 110], the “stabilization in comparison” value is given as “stabilized”. Moreover, the half-life at 1 μM (first experiment (Table 3)) was determined as 1.24 h. Also, where the note is “repeated experiment (Table 4)”, the “In vitro half-life t1/2 in human liver microsomes” value was “Stable*”.
As to `[2H]C1([2H])CC(n2nnnc2CCCCOc2ccc3c(c2)CCC(=O)N3)CC([2H])([2H])C1([2H])[2H]` [Compound 112, 6-(4-(1-(3,3,4,4,5,5-d6-Cyclohexyl)-1H-tetrazol-5-yl)butoxy)-3,4-dihydroquinolin-2(1H)-one], the half-life at 1 μM (repeated experiment (Table 4)) came out at 1.32 h.
Still for that read-out and setting: under `[2H]C1([2H])CC(n2nnnc2CCCCOc2ccc3[nH]c(=O)ccc3c2)CC([2H])([2H])C1([2H])[2H]` [Compound 113, 6-(4-(1-(3,3,4,4,5,5-d6-Cyclohexyl)-1H-tetrazol-5-yl)butoxy)-3,4-dihydroquinolin-2(1H)-one] stands 1.49 h; under `O=c1ccc2cc(OCCCCc3nnnn3C3CCCCC3)ccc2[nH]1` [Dehydrocilostazol, reference compound], 1.31 h.
